# Measured values as given in paper PMC8778187, “A New Oxygen Containing Pyclen-Type Ligand as a Manganese(II) Binder for MRI and ^52Mn PET Applications: Equilibrium, Kinetic, Relaxometric, Structural and Radiochemical Studies” (Molecules, 2022).
# Test: 17O NMR and NMRD measurements (water exchange, rotation, hydration number)
# Assay type: physicochemical
# Procedure: The relaxivity of paramagnetic metal complexes is governed by several parameters, including the water exchange rate (kex), the rotational correlation time (τR), and the number of inner sphere water molecules (q). In order to obtain information for these parameters, temperature dependent ^17O NMR measurements (9.4 T) and nuclear magnetic relaxation dispersion (NMRD) experiments were carried out in the frequency range of 0.01–80 MHz, at 3 different temperatures (25, 37, and 50 °C). Since numerous physico-chemical parameters determine the relaxivity, the independent assessment of some of the parameters is essential for the correct characterization. The variable temperature ^17O NMR measurements can deliver information about kex and τR via the transverse (1/T2) and the longitudinal (1/T1) ^17O relaxation rates, respectively, while the ^17O chemical shifts (Δω) depend on q. Therefore, the transverse and longitudinal relaxation rates and chemical shifts for a [Mn(3,9-OPC2A)] complex and a diamagnetic reference sample (HClO4, pH = 3.3) have been determined in the aqueous solution.
# The ^17O 1/T2r values and the NMRD data have been analyzed simultaneously by the Swift–Connick equations [31], as well as by the Solomon–Bloembergen–Morgan (SMB) and Freed models (see Supporting Information). In this calculation, the water exchange rate, kex^298; its activation enthalpy and entropy, ΔH^‡ and ΔS^‡; the rotational correlational time, τR; its activation energy, ER; the square of the zero-field splitting energy (ZFS), Δ^2; and the correlation time of its modulation, τv, have been determined and listed in Table 5, together with corresponding values of other complexes for comparison. As a result of the high number of parameters involved in the calculations, some have to be set to reasonable estimates based on literature data. Thus, the scalar coupling constant, A/ħO, is set to 33 × 10^6 rad s^−1, the distance between the metal ion, and the inner and outer sphere water protons are fixed to rMnH = 2.83 Å and aMnH = 3.6 Å, respectively; the diffusion coefficient and its activation energy are fixed to DMnH = 23 × 10^−10 m^2s^−1 and EMnH = 18 kJmol^−1, and the activation energy of the modulation of the zero-field-splitting, Ev to 1.0 kJmol^−1.
# The hydration number has been fixed to q = 1, based on the relaxivity value measured at 20 MHz (r1 = 3.09 mM^−1s^−1), and on the value, 0.97 ± 0.2, determined for q using the method proposed by Gale et al..
# A Bruker Avance 400 (9.4 T) spectrometer was used to measure the longitudinal (1/T1) and transverse (1/T2) relaxation rates, and the chemical shifts of an aqueous solution of the [Mn(3,9-OPC2A)] complex (pH = 7.4, 1.3 mM) and a diamagnetic reference (HClO4 acidified water, pH = 3.3) in the temperature range of 273–348 K. The temperature calibration was performed using literature protocols relying on ethylene glycol and methanol standards. The 1/T1 and 1/T2 values were determined by the inversion−recovery and the Carr−Purcell−Meiboom−Gill spin echo technique, respectively. To avoid susceptibility corrections of the chemical shifts, a glass sphere fitted into a 10 mm NMR tube was used to contain the samples. ^17O enriched water (10% H2^17O, CortecNet) was added to the solutions to improve sensitivity (circa 1% enrichment). Proton NMRD profiles of the [Mn(3,9-OPC2A)] complex (1.00 mM, pH = 7.4) were recorded in aqueous solution on a Stelar SMARTracer Fast Field Cycling relaxometer (0.01−10 MHz), and a Bruker WP80 NMR electromagnet adapted to variable field measurements (20−80 MHz) and controlled by a SMARTracer PC-NMR console (Stelar s.r.l., Mede, Italy). The temperature was monitored by a VTC91 temperature control unit and maintained by a gas flow. The temperature was determined by previous calibration with a Pt resistance temperature probe. […]
compound,measurement,setting,value
"O=C([O-])CN1CCOCCN(CC(=O)[O-])Cc2cccc(n2)C1.[Mn+2] [[Mn(3,9-OPC2A)]]",r1^298_20 MHz,"20 MHz, 298 K",3.09 mM⁻¹ s⁻¹
same,ER,activation energy of rotation,14.8 ± 0.6 kJmol^−1
same,ΔH^‡,activation enthalpy of water exchange,28.5 ± 1.7 kJmol^−1
same,ΔS^‡,activation entropy of water exchange,−1.9 ± 0.8 JK^−1mol^−1
same,τv^298,correlation time of ZFS modulation,19.3 ± 3.0 ps
same,q (method proposed by Gale et al.),hydration number from 17O NMR line widths,0.97 ± 0.2
same,q,"hydration number, fixed during the fitting procedure",1
same,τR^298,rotational correlation time,40.0 ± 1.1 ps
same,Δ^2,square of the zero-field splitting energy,17.8 ± 3.6 10^18s^−2
same,kex^298,water exchange rate with bulk solvent,5.3 ± 0.4 × 10^7 s^−1
same,kex^298,"water exchange rate, fit of 17O NMR and NMRD data",5.3 ± 0.4 10^7s^−1
